Results taken from ChEMBL document CHEMBL3044921, “Synthesis, characterization, and SAR studies of new (1H-indol-3-yl)alkyl-3-(1H-indol-3-yl)propanamide derivatives as possible antimicrobial and antitubercular agents” (2013).
Converted amounts (≈) assume the structure as drawn.

What was measured:
Candida albicans [1] = experiment: Antifungal activity against Candida albicans assessed as growth inhibition at […] to […] ug/ml after 3 to 4 days by agar well diffusion method; format: functional
Pseudomonas aeruginosa [2] = experiment: Antibacterial activity against Pseudomonas aeruginosa ATCC 27853 assessed as growth inhibition after 16 to 18 hr by serial plate dilution method; format: functional
Klebsiella pneumoniae [3] = format: functional
Description: Antibacterial activity against Klebsiella pneumoniae assessed as growth inhibition at 1.56 to 25 ug/ml after 3 to 4 days by agar well diffusion method

[4] = tested on: Mycobacterium tuberculosis; experiment: Antitubercular activity against Mycobacterium tuberculosis H37Rv ATCC 27294 assessed as growth inhibition at 1 to 100 ug/mL after 7 days by resazurin reduction test; format: functional; conditions: for MIC: Mycobacterium tuberculosis, H37Rv ATCC 27294, 168 h
Talaromyces marneffei [5] = experiment: Antifungal activity against Talaromyces marneffei assessed as growth inhibition at […] to […] ug/ml after 3 to 4 days by agar well diffusion method; format: functional
Aspergillus flavus [6] = experiment: Antifungal activity against Aspergillus flavus NCIM 524 assessed as growth inhibition after 3 to 4 days by serial plate dilution method; format: functional
Aspergillus fumigatus [7] = experiment: Antifungal activity against Aspergillus fumigatus NCIM 902 assessed as growth inhibition after 3 to 4 days by serial plate dilution method; format: functional
Aspergillus flavus [8] = experiment: Antifungal activity against Aspergillus flavus NCIM 524 assessed as growth inhibition at […] to […] ug/ml after 3 to 4 days by agar well diffusion method; format: functional
Aspergillus fumigatus [9] = experiment: Antifungal activity against Aspergillus fumigatus NCIM 902 assessed as growth inhibition at […] to […] ug/ml after 3 to 4 days by agar well diffusion method; format: functional
[10] = tested on: Trichophyton mentagrophytes; experiment: Antifungal activity against Trichophyton mentagrophytes assessed as growth inhibition at […] to […] ug/ml after 3 to 4 days by agar well diffusion method; format: functional
Escherichia coli [11] = experiment: Antibacterial activity against Escherichia coli […] assessed as growth inhibition after 16 to 18 hr by serial plate dilution method; format: functional
[12] = tested on: Trichophyton mentagrophytes; experiment: Antifungal activity against Trichophyton mentagrophytes assessed as growth inhibition after 3 to 4 days by serial plate dilution method; format: functional
Pseudomonas aeruginosa [13] = format: functional, ATCC 27853
Description: Antibacterial activity against Pseudomonas aeruginosa ATCC 27853 assessed as growth inhibition at 1.56 to 25 ug/ml after 3 to 4 days by agar well diffusion method

Staphylococcus aureus [14] = format: functional, ATCC 25923
Description: Antibacterial activity against Staphylococcus aureus ATCC 25923 assessed as growth inhibition at 1.56 to 25 ug/ml after 3 to 4 days by agar well diffusion method

Candida albicans [15] = experiment: Antifungal activity against Candida albicans assessed as growth inhibition after 3 to 4 days by serial plate dilution method; format: functional
Staphylococcus aureus [16] = experiment: Antibacterial activity against Staphylococcus aureus ATCC 25923 assessed as growth inhibition after 16 to 18 hr by serial plate dilution method; format: functional
[17] = tested on: Mycobacterium tuberculosis; experiment: Antitubercular activity against Mycobacterium tuberculosis H37Rv ATCC 27294 assessed as growth inhibition at 0.3125 to 5 ug/mL after 7 days by resazurin reduction test; format: functional; conditions: H37Rv ATCC 27294, 168 h
[18] = tested on: Mycolicibacterium smegmatis; experiment: Antitubercular activity against Mycobacterium smegmatis ATCC 19420 assessed as growth inhibition at 1 to 100 ug/mL after 7 days by resazurin reduction test; format: functional; conditions: ATCC 19420, 168 h
Streptococcus pyogenes [19] = format: functional
Description: Antibacterial activity against Streptococcus pyogenes assessed as growth inhibition at 1.56 to 25 ug/ml after 3 to 4 days by agar well diffusion method

Talaromyces marneffei [20] = experiment: Antifungal activity against Talaromyces marneffei assessed as growth inhibition after 3 to 4 days by serial plate dilution method; format: functional
[21] = tested on: Mycolicibacterium smegmatis; experiment: Antitubercular activity against Mycobacterium smegmatis ATCC 19420 assessed as growth inhibition at 0.3125 to 5 ug/mL after 7 days by resazurin reduction test; format: functional; conditions: ATCC 19420, 168 h
[22] = tested on: Mycolicibacterium fortuitum; experiment: Antitubercular activity against Mycobacterium fortuitum ATCC 19542 assessed as growth inhibition at 1 to 100 ug/mL after 7 days by resazurin reduction test; format: functional; conditions: ATCC 19542, 168 h
Streptococcus pyogenes [23] = experiment: Antibacterial activity against Streptococcus pyogenes assessed as growth inhibition after 16 to 18 hr by serial plate dilution method; format: functional
Escherichia coli [24] = format: functional, ATCC 24922
Description: Antibacterial activity against Escherichia coli ATCC 24922 assessed as growth inhibition at 1.56 to 25 ug/ml after 3 to 4 days by agar well diffusion method

Klebsiella pneumoniae [25] = experiment: Antibacterial activity against Klebsiella pneumoniae assessed as growth inhibition after 16 to 18 hr by serial plate dilution method; format: functional
[26] = tested on: Mycolicibacterium fortuitum; experiment: Antitubercular activity against Mycobacterium fortuitum ATCC 19542 assessed as growth inhibition at 0.3125 to 5 ug/mL after 7 days by resazurin reduction test; format: functional; conditions: ATCC 19542, 168 h

| SMILES | diameter of the inhibition zone (DIZ) (Candida albicans [1]) | MIC (Pseudomonas aeruginosa [2]) | diameter of the inhibition zone (DIZ) (Klebsiella pneumoniae [3]) | growth inhibition (GI) [4] | MIC [4] | diameter of the inhibition zone (DIZ) (Talaromyces marneffei [5]) | MIC (Aspergillus flavus [6]) | MIC (Aspergillus fumigatus [7]) | diameter of the inhibition zone (DIZ) (Aspergillus flavus [8]) | diameter of the inhibition zone (DIZ) (Aspergillus fumigatus [9]) | diameter of the inhibition zone (DIZ) [10] | MIC (Escherichia coli [11]) | MIC [12] | diameter of the inhibition zone (DIZ) (Pseudomonas aeruginosa [13]) | diameter of the inhibition zone (DIZ) (Staphylococcus aureus [14]) | MIC [17] | MIC [18] | MIC [21] | MIC [22] | MIC [26] | further results |
| --- | --- | --- | --- | --- | --- | --- | --- | --- | --- | --- | --- | --- | --- | --- | --- | --- | --- | --- | --- | --- | --- |
| Cn1cc(CCC(=O)NCCCc2c[nH]c3ccc(Cl)cc23)c2cc(Cl)ccc21 | 16 mm | 6.25 µg/mL (≈ 14.6 µM) | 16 mm | <90% | 10 µg/mL (≈ 23.3 µM) | <10 mm | 25 µg/mL (≈ 58.4 µM) | 25 µg/mL (≈ 58.4 µM) | <10 mm | <10 mm | 11 mm | 6.25 µg/mL (≈ 14.6 µM) | 12.5 µg/mL (≈ 29.2 µM) | 16 mm | 16 mm | 2.5 µg/mL (≈ 5.84 µM) | 10 µg/mL (≈ 23.3 µM) | 2.5 µg/mL (≈ 5.84 µM) | > 100 µg/mL | – | MIC (Candida albicans [15]): 6.25 µg/mL (≈ 14.6 µM); MIC (Staphylococcus aureus [16]): 6.25 µg/mL (≈ 14.6 µM); diameter of the inhibition zone (DIZ) (Streptococcus pyogenes [19]): 11 mm; MIC (Talaromyces marneffei [20]): 25 µg/mL (≈ 58.4 µM); MIC (Streptococcus pyogenes [23]): 12.5 µg/mL (≈ 29.2 µM); diameter of the inhibition zone (DIZ) (Escherichia coli [24]): 16 mm; MIC (Klebsiella pneumoniae [25]): 6.25 µg/mL (≈ 14.6 µM) |
| Cn1cc(CCCNC(=O)CCc2c[nH]c3ccc(Cl)cc23)c2cc(OC(F)(F)F)ccc21 | <10 mm | 6.25 µg/mL (≈ 13.1 µM) | 16 mm | 95% | 1 µg/mL (≈ 2.09 µM) | 11 mm | 25 µg/mL (≈ 52.3 µM) | 25 µg/mL (≈ 52.3 µM) | <10 mm | <10 mm | <10 mm | 6.25 µg/mL (≈ 13.1 µM) | 25 µg/mL (≈ 52.3 µM) | 16 mm | 16 mm | 0.625 µg/mL (≈ 1.31 µM) | 10 µg/mL (≈ 20.9 µM) | 10 µg/mL (≈ 20.9 µM) | 10 µg/mL (≈ 20.9 µM) | 10 µg/mL (≈ 20.9 µM) | MIC (Candida albicans [15]): 25 µg/mL (≈ 52.3 µM); MIC (Staphylococcus aureus [16]): 6.25 µg/mL (≈ 13.1 µM); diameter of the inhibition zone (DIZ) (Streptococcus pyogenes [19]): 16 mm; MIC (Talaromyces marneffei [20]): 12.5 µg/mL (≈ 26.2 µM); MIC (Streptococcus pyogenes [23]): 6.25 µg/mL (≈ 13.1 µM); diameter of the inhibition zone (DIZ) (Escherichia coli [24]): 16 mm; MIC (Klebsiella pneumoniae [25]): 6.25 µg/mL (≈ 13.1 µM) |
| Cc1[nH]c2ccc(OC(F)(F)F)cc2c1CNC(=O)CCc1cn(C)c2ccc(Cl)cc12 | 11 mm | 25 µg/mL (≈ 53.9 µM) | 16 mm | 90% | 1 µg/mL (≈ 2.16 µM) | <10 mm | 25 µg/mL (≈ 53.9 µM) | 25 µg/mL (≈ 53.9 µM) | <10 mm | <10 mm | <10 mm | 6.25 µg/mL (≈ 13.5 µM) | 25 µg/mL (≈ 53.9 µM) | <10 mm | <10 mm | 1.25 µg/mL (≈ 2.69 µM) | 1 µg/mL (≈ 2.16 µM) | 1.25 µg/mL (≈ 2.69 µM) | 10 µg/mL (≈ 21.6 µM) | 1.25 µg/mL (≈ 2.69 µM) | MIC (Candida albicans [15]): 12.5 µg/mL (≈ 26.9 µM); MIC (Staphylococcus aureus [16]): 25 µg/mL (≈ 53.9 µM); diameter of the inhibition zone (DIZ) (Streptococcus pyogenes [19]): 11 mm; MIC (Talaromyces marneffei [20]): 25 µg/mL (≈ 53.9 µM); MIC (Streptococcus pyogenes [23]): 12.5 µg/mL (≈ 26.9 µM); diameter of the inhibition zone (DIZ) (Escherichia coli [24]): 16 mm; MIC (Klebsiella pneumoniae [25]): 6.25 µg/mL (≈ 13.5 µM) |
| NNC(=O)c1ccncc1 [ISONIAZID] | – | – | – | 95% | 0.7 µg/mL (≈ 5.1 µM) | – | – | – | – | – | – | – | – | – | – | 0.7 µg/mL (≈ 5.1 µM) | 50 µg/mL (≈ 365 µM) | 50 µg/mL (≈ 365 µM) | 12.5 µg/mL (≈ 91.1 µM) | 12.5 µg/mL (≈ 91.1 µM) | – |
| CO[C@H]1/C=C/O[C@@]2(C)Oc3c(C)c(O)c4c(O)c(c(/C=N/N5CCN(C)CC5)c(O)c4c3C2=O)NC(=O)/C(C)=C\C=C\[C@H](C)[C@H](O)[C@@H](C)[C@@H](O)[C@@H](C)[C@H](OC(C)=O)[C@@H]1C [RIFAMPIN] | – | – | – | 95% | 0.5 µg/mL (≈ 0.608 µM) | – | – | – | – | – | – | – | – | – | – | 0.5 µg/mL (≈ 0.608 µM) | 1.5 µg/mL (≈ 1.82 µM) | 1.5 µg/mL (≈ 1.82 µM) | 1.5 µg/mL (≈ 1.82 µM) | 1.5 µg/mL (≈ 1.82 µM) | – |
